Assay results from PMC12655819 (Pharmaceuticals, 2025).
Marks after values point to notes of the source that are not given here.

Key:
[1] = Pharmacokinetics from dried saliva collected with Mitra VAMS (vsMPA, vsMPAG); format: in vivo, human
Protocol: (§1) The AUC0–4, Tmax, and Cmax parameters were calculated using the R (version 4.5.1) package software (R Core Team, 2025), supported by RStudio (version 2025.05.1+513) from Posit PBC software (Boston, MA, USA). […] The vMPA and vMPAG capillary blood levels were corrected using formulas validated in our department (partially published by Kocur et al.) and expressed as estimated capillary plasma concentrations. […] Individual PK profiles for each patient included in the study are provided in the Supplementary File (Figures S4 and S5).
Samples were sonicated (36 °C, 30 min), vortexed (15 min), and frozen (−20 °C, 15 min). After centrifugation (10 min, 25,155× g), 350 µL of supernatant was transferred to a total recovery borosilicate vial (Finneran, Vineland, NJ, USA) and evaporated to dryness under a stream of nitrogen (40 °C) using Ultravap® Levante (Porvair, Hampshire, Great Britain). The residue was reconstituted in 150 µL of mobile phase A, filtered in a Verex™ vial, and 5 µL was injected into the LC–MS/MS system. Analyses were performed at the Department of Drug Chemistry, Pharmaceutical and Biomedical Analysis, Medical University of Warsaw, Poland.
(§2) Additionally, the unstimulated saliva samples were simultaneously collected using the Salivette® device (Sarstedt, Nümbrecht, Germany) and Mitra™ 20 µL microsampling tips (Neoteryx/Trajan, Torrance, CA, USA (all saliva samples simultaneously to plasma and capillary blood sampling: 0, 0.5, 1, 2, and 4 h after drug administration). Patients had not eaten for at least 30 min before saliva collection, and their mouths were rinsed with water. The study was conducted in accordance with the Declaration of Helsinki and the International Council for Harmonization Guideline for Good Clinical Practice. The protocol was approved by the Bioethics Committee of the Children’s Memorial Health Institute, Warsaw, Poland (approval No. 15/KBE/2023, with subsequent amendments). Written informed consent was obtained from all participants and their legal guardians.

[2] = cited from earlier work
[3] = Pharmacokinetics from capillary blood collected with Mitra VAMS (vMPA, vMPAG); format: in vivo, human
Protocol: as §1
Subsequently, the tip (after at least 1 h of drying) was placed in an 1.5 mL Eppendorf-type test tube (Eppendorf AG, Hamburg, Germany) containing 150 μL of pure deionized water. Next, the test tube was shaken at room temperature for 1 h using the automatic rotary vortex. Subsequently, 10 μL of IS solution and 150 μL of the precipitation mixture were added. The sample was then processed as described in Section 4.3.4. Sample processing was carried out at the Department of Drug Chemistry, Pharmaceutical and Biomedical Analysis, Medical University of Warsaw, Poland [21].
(§3) From each patient (if they consented to all sampling types), four samples were collected simultaneously at all defined time points of the dynamic PK profile (0, 0.5, 1, 2, and 4 h after drug administration). Whole blood was collected using standard venipuncture by a phlebotomist into a K3-EDTA test tube (Sarstedt, Nümbrecht, Germany). Plasma for analytical determination was obtained by centrifuging a portion of the whole blood and stored at −40 °C until assay. At the same time, 10 µL capillary blood samples were collected from a finger prick using the Mitra™ device (VAMS samples were stored in light-protected aluminum zip bags with desiccant at room temperature).

[4] = Pharmacokinetics from liquid (wet) saliva collected with Salivette (sMPA, sMPAG); format: in vivo, human
Protocol: as §1
The concentrations of sMPA and sMPAG in saliva were determined using a previously described LC-MS/MS method. Briefly, 100 µL of saliva was used for analysis. […] Samples were vortexed and evaporated to dryness. The dry residues were reconstituted in 100 μL of a mobile phase consisting of a 1:4 (v/v) mixture of methanol and water, both of which contained 0.1% formic acid. After double centrifugation, the samples were analyzed using a Shimadzu Ultra-Performance Liquid Chromatography (UPLC) system (Shimadzu Co., Kyoto, Japan) coupled with a triple quadrupole mass spectrometer (LCMS-8030; Simadzu Co., Kyoto, Japan). The method was linear over the concentration range of 2–500 μg/L for both sMPA and sMPAG. This part of the work was carried out with the support of the Centre of Innovative Pharmaceutical Technology, Poznan University of Medical Sciences (Poznan, Poland).
as §2

[5] = Pharmacokinetics from plasma unbound levels in plasma ultrafiltrate (fMPA, fMPAG); format: in vivo, human; conditions: free level in plasma ultrafiltrate
Protocol: as §1
Next, the sample was centrifuged at 3000× g for 5 min at ambient conditions, and the supernatant was transferred into a chromatographic vial. Sample processing was performed at the Department of Drug Chemistry, Pharmaceutical and Biomedical Analysis, Medical University of Warsaw, Poland.
as §3

[6] = normalized to MMF dose, n = 20, mean (range)

- AUC(0–4) Normalized to Drug Dose ([1]; dried saliva (Mitra VAMS), normalized to MMF dose, n = 20, mean (range)): 305.78 (33.88–2937.03) ^c µg × h/mL × g
- Cmax ([1]; human, dried saliva (Mitra VAMS 20 µL), pediatric renal transplant recipients (n = 20) on MMF, 0–4 h post-dose, mean (range), read-out: Cmax): 84.1 ng/mL
- concentration at 0 h ([1]; human, dried saliva (Mitra VAMS), 0 h (pre-dose), n = 20, mean ± SD, read-out: C0 concentration): 7.54 ± 4.89 ng/mL
- concentration at 0.5 h ([1]; human, dried saliva (Mitra VAMS), 0.5 h post-dose, n = 20, mean ± SD, read-out: C0.5 concentration): 27.7 ± 9.14 ng/mL
- concentration at 1 h ([1]; human, dried saliva (Mitra VAMS), 1 h post-dose, n = 20, mean ± SD, read-out: C1 concentration): 52.2 ± 40.9 ng/mL
- concentration at 2 h ([1]; human, dried saliva (Mitra VAMS), 2 h post-dose, n = 20, mean ± SD, read-out: C2 concentration): 17.1 ± 16.7 ng/mL
- concentration at 4 h ([1]; human, dried saliva (Mitra VAMS), 4 h post-dose, n = 20, mean ± SD, read-out: C4 concentration): 7.25 ± 8.03 ng/mL
- Tmax ([1]; human, dried saliva (Mitra VAMS), pediatric renal transplant recipients (n = 20) on MMF, mean (range), read-out: Tmax): 51 min
- concentration at 0 h ([3]; human, 0 h (pre-dose), n = 20, mean ± SD, read-out: C0 concentration): 1800 ± 1300 ng/mL
- concentration at 0.5 h ([3]; human, 0.5 h post-dose, n = 20, mean ± SD, read-out: C0.5 concentration): 9660 ± 8960 ng/mL
- concentration at 1 h ([3]; human, 1 h post-dose, n = 20, mean ± SD, read-out: C1 concentration): 10100 ± 5970 ng/mL
- concentration at 2 h ([3]; human, 2 h post-dose, n = 20, mean ± SD, read-out: C2 concentration): 4430 ± 3000 ng/mL
- concentration at 4 h ([3]; human, 4 h post-dose, n = 20, mean ± SD, read-out: C4 concentration): 1770 ± 2010 ng/mL
- AUC(0-t) ([3]; human, corrected to estimated capillary plasma concentration, n = 20, mean (range)): 21400 ng·h/mL
- Cmax ([3]; human, corrected to estimated capillary plasma concentration, pediatric renal transplant recipients (n = 20) on MMF, mean (range), read-out: Cmax): 12900 ng/mL
- Tmax ([3]; human, pediatric renal transplant recipients (n = 20) on MMF, mean (range), read-out: Tmax): 46.8 min
- AUC(0–4) Normalized to Drug Dose [3, 6]: 68.95 (20.71–444.79) ^d mg × h/mL × g
- concentration at 0 h ([4]; human, unstimulated, Salivette, wet saliva, 0 h (pre-dose), n = 20, mean ± SD, read-out: C0 concentration): 8.24 ± 5.66 ng/mL
- concentration at 0.5 h ([4]; human, unstimulated, Salivette, wet saliva, 0.5 h post-dose, n = 20, mean ± SD, read-out: C0.5 concentration): 27.2 ± 7.86 ng/mL
- concentration at 1 h ([4]; human, unstimulated, Salivette, wet saliva, 1 h post-dose, n = 20, mean ± SD, read-out: C1 concentration): 51.6 ± 45.8 ng/mL
- concentration at 2 h ([4]; human, unstimulated, Salivette, wet saliva, 2 h post-dose, n = 20, mean ± SD, read-out: C2 concentration): 17.7 ± 16.1 ng/mL
- concentration at 4 h ([4]; human, unstimulated, Salivette, wet saliva, 4 h post-dose, n = 20, mean ± SD, read-out: C4 concentration): 8 ± 9.49 ng/mL
- AUC(0-t) ([4]; human, unstimulated, Salivette, wet saliva, pediatric renal transplant recipients (n = 20) on MMF, mean (range)): 107 ng·h/mL
- Tmax ([4]; human, unstimulated, Salivette, wet saliva, pediatric renal transplant recipients (n = 20) on MMF, mean (range), read-out: Tmax): 51 min
- Cmax ([4]; human, wet saliva (unstimulated, Salivette), pediatric renal transplant recipients (n = 20) on MMF, 0–4 h post-dose, mean (range), read-out: Cmax): 83.5 ng/mL
- AUC(0–4) Normalized to Drug Dose ([4]; wet saliva, normalized to MMF dose, n = 20, mean (range)): 300.18 (32.29–2716.80) ^c µg × h/mL × g
- AUC(0–4) Normalized to Drug Dose [5, 6]: 0.596 (0.042–1.577) ^d mg × h/mL × g
- concentration at 0 h ([5]; human, plasma ultrafiltrate (unbound level in EDTA plasma), 0 h (pre-dose), n = 20, mean ± SD, read-out: C0 concentration): 22 ± 16 ng/mL
- concentration at 0.5 h ([5]; human, plasma ultrafiltrate (unbound level in EDTA plasma), 0.5 h post-dose, n = 20, mean ± SD, read-out: C0.5 concentration): 104 ± 125 ng/mL
- concentration at 1 h ([5]; human, plasma ultrafiltrate (unbound level in EDTA plasma), 1 h post-dose, n = 20, mean ± SD, read-out: C1 concentration): 149 ± 146 ng/mL
- concentration at 2 h ([5]; human, plasma ultrafiltrate (unbound level in EDTA plasma), 2 h post-dose, n = 20, mean ± SD, read-out: C2 concentration): 49 ± 41 ng/mL
- concentration at 4 h ([5]; human, plasma ultrafiltrate (unbound level in EDTA plasma), 4 h post-dose, n = 20, mean ± SD, read-out: C4 concentration): 31 ± 50 ng/mL
- Cmax ([5]; human, plasma ultrafiltrate (unbound level in EDTA plasma), pediatric renal transplant recipients (n = 20) on MMF (CellCept), steady state, 0–4 h post-dose, mean (range), read-out: Cmax): 160 ng/mL
- AUC(0-t) ([5]; human, plasma ultrafiltrate (unbound level in EDTA plasma), pediatric renal transplant recipients (n = 20) on MMF, mean (range)): 276 ng·h/mL
- Tmax ([5]; human, plasma ultrafiltrate (unbound level in EDTA plasma), pediatric renal transplant recipients (n = 20) on MMF, mean (range), read-out: Tmax): 54 min
Structure (SMILES): COc1c(C)c2c(c(O)c1C/C=C(\C)CCC(=O)O)C(=O)OC2 [MPA, Mycophenolic acid]
- increase in free fraction ([2]; displacement by MPAG in severe renal impairment): 7%
- affinity for plasma proteins (binding) ([2]; general statement of the introduction): 97–99%
- time of peak plasma concentration after administration ([2]; plasma): 1 to 2 h
- unbound fraction ([2]; typical range): 1 to 2.5%
